Measured values reported in EP2949220A1, “Nutraceutic supplement for bees families and process for its administration” (SC Teso Spec SRL, priority 2014, dated 2015).

Assays:
[1] = test system: Lactobacillus kunkeei DSM 12361; experiment: Growth of fructophilic lactobacteria on FYP broth with glucose-fructose syrup; assay type: cell-based; conditions: FYP medium with glucose-fructose syrup; 21.5 mg/l maltol, 2.05 mg/l p-coumaric acid, 2.25 mg/l caffeic acid where present
Description: Optimization of the ratio of hydroxycinnamic acids, p-coumaric and caffeic, and maltol, was obtained by using experiments designed according to response surface technique, using the Software Design-Expert® v. 9.0 (Stat-Ease, Minneapolis, MN, USA). Two bioassays were used, wherein the effect of different combinations of maltol and hydroxycinnamic acids, p-coumaric and caffeic, were determined, on fructophilic lactobacteria growth and on oxidative stress and on the induction of CYP9Q, enzyme from cytochrome P450 monooxigenase class, with key role in defense systems of bees (Mao et al., 2013, PNAS, 110: 8842-8846). […] The ratio 4.1 parts p-coumaric acid, 4.5 parts caffeic acid and 43 parts maltol, determined as being optimal in terms L. kunkeei development enhancement, was re-tested in laboratory conditions, using 400 g/l glucose-fructose syrup (Isosugar 031™, Tate and Lyle, London, United Kingdom, 74.8% dry matter, 50.2% of which is fructose), instead of 300 g/l of fructose on FYP broth. […]

[2] = test system: lipid peroxides (as malondialdehide); experiment: Oxidative stress in midguts of bees fed bee candy (lipid peroxides as MDA, thiobarbituric acid); assay type: in vivo, honey bees; conditions: 3 days, control = 100%, 4.3 µg/g maltol, 0.41 µg/g p-coumaric acid, 0.45 µg/g caffeic acid where present (mixture row prints µg/l)
Description: (§1) Optimization of the ratio of hydroxycinnamic acids, p-coumaric and caffeic, and maltol, was obtained by using experiments designed according to response surface technique, using the Software Design-Expert® v. 9.0 (Stat-Ease, Minneapolis, MN, USA). Two bioassays were used, wherein the effect of different combinations of maltol and hydroxycinnamic acids, p-coumaric and caffeic, were determined, on fructophilic lactobacteria growth and on oxidative stress and on the induction of CYP9Q, enzyme from cytochrome P450 monooxigenase class, with key role in defense systems of bees (Mao et al., 2013, PNAS, 110: 8842-8846). […] After three days bees midguts were taken by dissection, frozen in liquid nitrogen and stored at -80 ° C, to extract total RNA for quantitative RT-PCR analysis of CYP9Q3 expression and for the determination of lipid peroxides (as malondialdehide) as markers of oxidative stress. RNA was extracted from frozen abdomens by TRIzol method (Invitrogen, Thermo Fisher Scientific, Waltham, MA, USA), treated with DNAse (Ambion® protocol, Thermo Fisher Scientific) and used for the quantitative analysis of the expression CYP9Q by RT-PCR, as described by Mao et al., 2011 (PNAS, 108, 12657-12662). Lipid peroxides were determined as malondialdehid ? , with tiobarbituric acid (Rael et al., 2004, J. Biochem. Mol. Biol, 3, 749-752).

CYP9Q = CYP9Q induction in bees fed bee candy (quantitative RT-PCR); assay type: in vivo, honey bees; conditions: 3 days, control = 100%, 4.3 µg/g maltol, 0.41 µg/g p-coumaric acid, 0.45 µg/g caffeic acid where present (mixture row prints µg/l)
Description: as §1

SMILES: Cc1occc(=O)c1O [maltol, 3-Hydroxy-2-methyl-4H-piran-4-one]
- Culture development (% control) [1]: 76.8 % control
- Lactic acid production (% control) [1]: 67,9 % control
- Oxidative stress MDA (%) [2]: 123,7%
- Inducing CYP9Q (%) (CYP9Q): 102.9%
